The source of these data is PMC3002932 (PLoS ONE, 2010).

The subject of assay [1] is viral glycoproteins (GRFN-1 binding; gp120LAV chip). The assay can be described thus: SPR competition of saccharides with GRFN-1 binding. Details: species or system HIV-1. An excerpt: α-D-mannopyranose (Man), L-fucopyranose (Fuc), α-D-galactopyranose (Gal), sialic acid (N-acetyl-neuraminic acid, Neu5Ac), N-acetyl-glucosamine (GlcNAc) and Man3(GlcNAc)2, a core pentasaccharide found in most N-linked oligosaccharides. All of these saccharides were purchased from Sigma-Aldrich (St. Louis, MO).

Assay [2] has as its system HIV-1 (BaL). Type of assay: cell-based. Particulars: TZM-bl assay; for EC50: HIV-1 BaL (R5), 24 hr, luciferase activity.
Experimental: The ability of the analogs to inhibit HIV infection was determined with an assay that determines viral infectivity with an LTR-mediated luciferase reporter construct [37]. In brief, TZM-bl reporter cells are HeLa-derived JC53-BL cells that express high levels of CD4, CXCR4, and CCR5. They also contain reporter cassettes for luciferase and β-galactosidase, both driven by the HIV-1 long terminal repeat [38]). 24 hr after these reporter cells were exposed to R5 lab-adapted strains of HIV-1 (BaL) in the presence of peptides, protection was measured as % reduction in luciferase activity (relative light units) compared to cells infected with virus and peptide vehicle alone.
Assay [3] concerns HIV-1. The conditions noted are these: read-out: average EC50; anti-HIV inhibitory activity; ref [20], [21]; cited from earlier work. An excerpt:
Preventing HIV-1 infection is the primary goal of pre- and post-exposure prophylaxis of HIV. Prophylactic modalities that block HIV-1 entry would be particularly valuable, because latent HIV-1 infections are typically refractory to therapeutic or immunological interventions [1]–[9]. […] Most anti-HIV lectins have been identified in and isolated from natural sources. They include cyanovirin-N [11], [12] and scytovirin [13] from cyanobac ...

Assay [4] deals with CCR5 (HIV-1BAL). The assay can be described thus: p24^gag antigen release assay using PBMCs, CCR5 strain. Type of assay: cell-based. The conditions noted are these: PBMC based p24^gag antigen release assay.
For assay [5], the system named is CXCR4 (HIV-1IIIB). The assay can be described thus: p24^gag antigen release assay using PBMCs, CXCR4 strain. The conditions noted are these: PBMC based p24^gag antigen release assay. Type of assay: cell-based.

Entries after “also recorded” stand apart in the source; their conditions may differ. Where two headings read alike, the source gives them in different places.

By EC50 is commonly meant the concentration at which the effect is half-maximal.

As for `CC(=O)N[C@@H]1[C@@H](O)[C@H](O)[C@@H](CO)O[C@H]1O` [GlcNAc, N-acetyl-glucosamine], the “competition with binding of GRFN-1 to viral glycoproteins (in words)” value (“competition with binding” below) in assay [1] (pH = 7.4) is recorded as “interacted with all of these sugars, except fucose; also recorded: the most effective competitors”.

With `CC[C@H](C)[C@@H]1NC(=O)CNC(=O)[C@H](CCCCN)NC(=O)CNC(=O)[C@@H]2CSSC[C@H](NC1=O)C(=O)N[C@@H](CCCNC(=N)N)C(=O)N[C@H]1CSSC[C@H](NC(=O)[C@H](CCCNC(=N)N)NC(=O)[C@@H]3CSSC[C@H](NC(=O)[C@H]([C@@H](C)CC)NC1=O)C(=O)NCC(=O)N[C@@H](CCCNC(=N)N)C(=O)NCC(=O)N[C@@H]([C@@H](C)CC)C(=O)N3)C(=O)N[C@@H]([C@@H](C)CC)C(=O)N2` [RC-101, reference compound], it took 3400 nM to reach a half-maximal effect in assay [2] (EC50).

As for `O=C[C@H](O)[C@@H](O)[C@@H](O)[C@H](O)CO` [galactose, α-D-galactopyranose], the “competition with binding” value in assay [1] (pH = 7.4) was “interacted with all of these sugars, except fucose”.

For `OC[C@H]1O[C@H](O)[C@@H](O)[C@@H](O)[C@@H]1O` [mannose, α-D-mannopyranose], the “competition with binding” value was “interacted with all of these sugars, except fucose; also recorded: the most effective competitors” in assay [1] (pH = 7.4) and “especially potent inhibitor that could almost completely abrogate binding of GRFN-1 to the viral glycoproteins” in assay [1] (pH = 7.4, listed as D-Mannose).

For `CC(=O)N[C@H]1[C@H]([C@H](O)[C@H](O)CO)OC(O)(C(=O)O)C[C@@H]1O` (stereo partly drawn) [sialic acid, N-acetyl-neuraminic acid], the “competition with binding” value in assay [1] (pH = 7.4) is given as “interacted with all of these sugars, except fucose; also recorded: less profound”.

As to “Cha-SC-Chg-R-Chg-RSGSY-Cha-DR-Ch\g-R-Chg-(D)Cys-CONH2 (disulfide) [GRFN-2, otherwise identical peptide with an Asn to Arg substitution]”, the “antiviral activity (in words)” value in assay [2] (dose response, Figure 4) is recorded as “considerably less active than GRFN-1”.

For the compound Man3GlcNAc2, in assay [1] (pH = 7.4), the “competition with binding” value is “interacted with all of these sugars, except fucose”.

In the case of griffithsin, the EC50 was 0.04 nM in assay [3] and 0.0196 ± 0.0019 nM in assay [2] (griffithsin). Further, the “antiviral activity (in words)” value in assay [4] and in assay [5] was “maintained their antiviral activity” throughout.
